# Laboratory results: US20070128586A1, “Therapeutic, prophylactic and diagnostic agents” (priority 2003, published 2007)
# Key:
# PBMCs [1] = assay: In vitro production of TNF-α by PBMCs stimulated with endotoxin; assay type: cell-based, human; settings: Child-Pugh B/C patients, n = 7; endotoxin 10 ng/mL, 20 h; ratio stimulated to unstimulated cells
# TNF-α = assay: Serum TNF-α assay (Quantikine HS immunoassay), cirrhotic patients; assay type: in vivo, human; settings: Child-Pugh B/C patients, n = 7; controls 1.7, no lactulose 3.1
# TLR-4 = assay: Flow cytometry for TLR-4 expression on CD14+ve peripheral blood monocytes, cirrhotic patients; assay type: in vivo, human; settings: Child-Pugh B/C patients, n = 7; ratio of geometric mean fluorescence to mean control values
# Text: Isotype matched non-binding controls were used for comparison. Ten thousand CD14^+ve cells were acquired for each sample and dead cells were gated out based on their light scatter properties on FACSCaliber flow cytometer (Becton Dickinson, USA). At least two control patients were used for standardization purposes every flow cytometry session. TLR-2 and TLR-4 values were expressed as a ratio of the geometric mean fluorescence of individual study patients to mean control values for that session.
# [2] = Plasma endotoxin assay (chromogenic limulus amoebocyte lysate), cirrhotic patients; assay type: in vivo, human
# sTNF RI (p55) = assay: Serum sTNFR assay, sTNF RI (p55), cirrhotic patients; assay type: in vivo, human; settings: Child-Pugh B/C patients, n = 7; controls 1643, no lactulose 3852
# Method: (§1) Peripheral blood was drawn using pyrogen-free needles, syringes and containers (Becton-Dickinson, Singapore). Plasma and serum were separated in a refrigerated centrifuge at 4° C. and stored at −70° C. in pyrogen-free polyethylene cryotubes (Nunc, Denmark) until analysis within six weeks of collection. Whole blood was used for determination of TLR expression on peripheral blood monocytes. Serum sTNF RI (p55) and sTNF RII (p75) were measured using Quantikine HS Human sTNFR Immunoassays (R&D Systems Inc., Minneapolis, USA), according to the manufacturer's instructions.
# TLR-2 = assay: Flow cytometry for TLR-2 expression on CD14+ve peripheral blood monocytes, cirrhotic patients; assay type: in vivo, human; settings: Child-Pugh B/C patients, n = 7; ratio of geometric mean fluorescence to mean control values
# PBMCs [3] = assay: In vitro production of TNF-α by PBMCs stimulated with SEB; assay type: cell-based, human; settings: Child-Pugh B/C patients, n = 7; SEB 10 ng/mL, 20 h; ratio stimulated to unstimulated cells
# sTNF RII (p75) = assay: Serum sTNFR assay, sTNF RII (p75), cirrhotic patients; assay type: in vivo, human; settings: Child-Pugh B/C patients, n = 7; controls 2438, no lactulose 5933
# Method: as §1
# HBV = HBV DNA in chronic Hepatitis B patients (Cobas Amplicor HBV Monitor Test); assay type: in vivo, Hepatitis B virus; settings: five CHB patients; fell from >200,000 following treatment with lamivudine
# Method: Eighteen non-cirrhotic patients with chronic Hepatitis B (CHB) and on-going viral replication (HBV DNA >200,000 genomes/mL, n=12 and 200-10,000 genomes/mL, n=6; Cobas Amplicor HBV Monitor (trademark) Test, USA) and 32 healthy control subjects were studied. TLR-2 and TLR-4 expression on CD14^+ve peripheral blood mononuclear cells (PBMC's) was measured by flow cytometry using anti-CD14 (Becton Dickinson) and anti-TLR-2 and anti-TLR-4 (eBioscience, USA) monoclonal antibodies. TLR expression was reassessed in five patients in whom HBV DNA fell from >200,000 to <200 genomes/mL following treatment with lamivudine. In vitro TLR-2 expression by PBMCs was measured in five control subjects at baseline and following stimulation for 20 h by partially purified recombinant HBV. […] TLR-2 expression normalised in each of the five lamivudine-treated CHB patients in whom HBV DNA became undetectable. In vitro expression of TLR-2 fell in a concentration-dependent manner following exposure to recombinant HBV.
SMILES,"In vitro production of TNF-α by PBMCs in response to endotoxin, Median (PBMCs [1])","Serum TNF-α, Median (TNF-α)","Expression of TLR-4 on CD14+ve PBMCs, Median (TLR-4)","Plasma endotoxin, Median ([2]; Child-Pugh B/C patients, n = 7, controls 25, no lactulose 49)",Plasma endotoxin values compared with control subjects ([2]; subgroup of Child-Pugh B and C patients treated with lactulose),"Serum soluble TNF receptor I, Median (sTNF RI (p55))","Expression of TLR-2 on CD14+ve PBMCs, Median (TLR-2)","In vitro production of TNF-α by PBMCs in response to SEB, Median (PBMCs [3])","Serum soluble TNF receptor II, Median (sTNF RII (p75))",HBV DNA following treatment (HBV)
OC[C@H]1O[C@@H](O[C@@H]2[C@@H](CO)OC(O)(CO)[C@H]2O)[C@H](O)[C@@H](O)[C@H]1O (mixture of isomers) [lactulose],3.1,4.2 pg/mL,1.06,13 pg/mL,not significantly different from those in control subjects,3878 pg/mL,1.29,1.5,5440 pg/mL,–
Nc1ccn([C@@H]2CS[C@H](CO)O2)c(=O)n1 [lamivudine],–,–,–,–,–,–,–,–,–,< 200 genomes/mL
